“Also recorded” adds a separate entry of the source.
Biological target: CDK9 (Homo sapiens, UniProt P50750)
Assay: CDK9 degradation in MOLT4 cells (immunoblot)
Type: cell-based
Design: endogenous in cells; host or cells: MOLT4, 293T, K562, NCI-H1299, LNCaP
Procedure: All the cell lines were maintained in a humidified incubator at 37° C. and 5% CO2.
Data analysis was performed using GraphPad Prism software (version 9) unless indicated otherwise. All graphs presented represent the mean±standard deviation of the mean (SD) unless otherwise stated.

Sequence of CDK9 (P50750 whole entry): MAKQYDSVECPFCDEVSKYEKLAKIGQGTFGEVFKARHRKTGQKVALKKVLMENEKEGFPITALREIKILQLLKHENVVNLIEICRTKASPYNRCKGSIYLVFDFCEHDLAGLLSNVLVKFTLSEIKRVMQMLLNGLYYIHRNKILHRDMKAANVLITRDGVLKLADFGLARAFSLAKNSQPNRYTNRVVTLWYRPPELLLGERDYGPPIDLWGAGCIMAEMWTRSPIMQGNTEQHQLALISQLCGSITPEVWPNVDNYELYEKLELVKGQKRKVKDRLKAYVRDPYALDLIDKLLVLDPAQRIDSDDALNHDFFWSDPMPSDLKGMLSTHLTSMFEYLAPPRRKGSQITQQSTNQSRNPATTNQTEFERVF

COc1cc(/C=C/C(=O)N2CCC=CC2=O)cc(OC)c1OCCN1CCN(C(=O)CN2CCC(C(=O)Nc3ncc(SCc4ncc(C(C)(C)C)o4)s3)CC2)CC1 [compound 955, (E)-N-(5-(((5-(tert-butyl)oxazol-2-yl)methyl)thio)thiazol-2-yl)-1-(2-(4-(2-(2,6-dimethoxy-4-(3-oxo-3-(6-oxo-3,6-dihydropyridin-1(2H)-yl)prop-1-en-1-yl)phenoxy)ethyl)piperazin-1-yl)-2-oxoethyl)piperidine-4-carboxamide]
955-induced CDK9 degradation after pre-treatment with PL or SNS-032: fully blocked | 955-induced CDK9 degradation after pre-treatment with autophagy/lysosome inhibitor Baf-A1 or chloroquine: could not block CDK9 degradation; also recorded: does not block CDK9 degradation | 955-induced CDK9 degradation after pre-treatment with neddylation inhibitor MLN4924: could be blocked; also recorded: blocks 955-induced CDK9 degradation | 955-induced CDK9 degradation after pre-treatment with pan-caspase inhibitor QVD: could not block CDK9 degradation; also recorded: does not block CDK9 degradation | 955-induced CDK9 degradation after pre-treatment with proteasome inhibitor MG132 or bortezomib: could be blocked; also recorded: can be blocked | 955-induced CDK9 degradation with E1 inhibitors PYR-41 and TAK-243: E1-dependent | 955-induced CDK9 degradation with KEAP1 inhibitors CDDO-ME, CDDO-IM or DMF: completely blocked | duration of CDK9 degradation effect in the time course (955 at 0.1 μM): at least 48 hours | time at which CDK9 was completely degraded (955 at 0.1 μM, time course): 8 h | time to almost complete degradation of CDK9 (955 at 0.1 μM, time course): ≤ 8 h | CDK9 degradation with short-term treatment (6 h treatment): potently degraded CDK9; also recorded: able to potently degrade CDK9 | DC50 (16 h treatment, from ImageJ-quantified Western blots): 9 nM | CDK9 degradation (immunoblot): only 955, degraded CDK9; also recorded: can induce CDK9 degradation | duration of CDK9 degradation after removal (washout) of 955 (washout): up to 18 h

— US20250057963A1, “DISCOVERY OF PIPERLONGUMINE AS A NOVEL E3 LIGASE LIGAND” (University of Florida Research Foundation, Incorporated, priority 2021, published 2025)
